Test results taken from US7605241B2, “Synthesis of inhibitors of p90Rsk” (University of Virginia Patent Foundation, priority 2005, dated 2009).

How the values were obtained:
p90 RSK = p90 RSK (Homo sapiens, UniProt P51812); experiment: inhibition of the kinase activity of p90 RSK (Table 1); assay type: biochemical
Source text: Methods for testing the ability of SL0101, and analogs and derivatives thereof, synthesized according to the methods disclosed herein, to inhibit p90 ribosomal S6 kinase (RSK) activity and cellular and metabolic processes downstream from RSK activity, are known to those of ordinary skill in the art. Some specific assays are provided in citation number 5 (Smith et al., Cancer Res., 2005, 65:1027), which is incorporated by reference in its entirety. The assays include various kinase assays, cell cycle analysis, gene silencing, and analysis of cells and tissues in vitro and in vivo.
Some specific assays are provided in citation number 5 (Smith et al., Cancer Res., 2005, 65:1027), which is incorporated by reference in its entirety.

Raf = settings: upstream kinase; cited from earlier work
PKC = settings: upstream kinase; cited from earlier work
MEK = settings: upstream kinase; cited from earlier work

p90 RSK, sequence (P51812 whole entry): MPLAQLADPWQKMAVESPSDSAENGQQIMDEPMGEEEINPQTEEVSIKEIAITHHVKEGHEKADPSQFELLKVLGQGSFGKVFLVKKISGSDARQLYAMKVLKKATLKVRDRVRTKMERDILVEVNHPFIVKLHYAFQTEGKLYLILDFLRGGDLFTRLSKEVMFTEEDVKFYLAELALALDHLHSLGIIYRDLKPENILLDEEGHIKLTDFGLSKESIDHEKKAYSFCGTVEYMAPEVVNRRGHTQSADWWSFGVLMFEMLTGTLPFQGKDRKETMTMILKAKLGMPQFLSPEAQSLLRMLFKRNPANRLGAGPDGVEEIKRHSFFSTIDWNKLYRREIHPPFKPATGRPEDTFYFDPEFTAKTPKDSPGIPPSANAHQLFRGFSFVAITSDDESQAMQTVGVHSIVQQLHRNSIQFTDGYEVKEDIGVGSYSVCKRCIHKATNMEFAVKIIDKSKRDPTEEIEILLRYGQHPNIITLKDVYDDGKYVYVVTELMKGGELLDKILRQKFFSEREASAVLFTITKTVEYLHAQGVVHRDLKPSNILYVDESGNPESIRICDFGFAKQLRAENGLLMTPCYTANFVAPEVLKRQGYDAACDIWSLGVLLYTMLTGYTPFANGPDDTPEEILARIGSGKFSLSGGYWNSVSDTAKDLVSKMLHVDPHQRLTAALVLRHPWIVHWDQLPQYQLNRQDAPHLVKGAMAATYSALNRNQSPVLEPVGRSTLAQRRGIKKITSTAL

IC50 (p90 RSK) [µM]	SMILES	inhibition of Raf (Raf)	inhibition of PKC (PKC)	inhibition of MEK (MEK)
0.58	CC(=O)OC1C(C)OC(Oc2c(-c3ccc(O)cc3)oc3cc(O)cc(O)c3c2=O)C(OC(C)=O)C1O (centres unmarked) [SL0101-3]	–	–	–
–	CC(=O)OC1C(C)OC(Oc2c(-c3ccc(O)cc3)oc3cc(O)cc(O)c3c2=O)C(O)C1OC(C)=O (centres unmarked) [SL0101-1]	not to inhibit	not to inhibit	not to inhibit
0.189	CC(=O)OC1C(C)OC(Oc2c(-c3ccc(O)cc3)oc3cc(O)cc(O)c3c2=O)C(O)C1O (centres unmarked) [SL0101-2]	–	–	–
